Measured values from publication PMC12121777 (PLOS One, 2025).
pIC50: −log10 of the molar value. ≈ marks a conversion by molar mass, not a printed value. Read-outs that look alike come from different tables or passages of the source.

Experiments:
[1] = test system: Mycobacterium avium 330/88; assay: MIC, micro method in Šula's semisynthetic medium, M. avium; type: cell-based
HepG2 cells = assay: Cytotoxicity on HepG2 cell line (CellTiter 96); type: cell-based, human; details: for pIC50: Homo sapiens, HepG2, 24 h, read-out: IC50 HepG2
Danio rerio embryos = assay: Fish embryo test (FET); type: in vivo; details: for mortality: as early as 48 h; for lethality: end of the 96 hours; for observed lethal endpoints: 0.001–100 µM, 96-hour exposure; for embryo coagulation, share of all observed endpoints: whole exposure period
Description: Fish maintenance. A day before the experiment, adult wild-type zebrafish (Danio rerio) were transferred into plastic spawning cages at the end of the 14-hour photoperiod. All fish were spawned at the onset of the following photoperiod. Fertilized eggs were collected within 30 minutes post-fertilization and inspected for health state and developmental stage using a stereomicroscope before exposure to 5g and 4h. Tested compounds were dissolved in DMSO; its concentration in 1 mM stock solution was 0.5%.
Fish embryo test (FET). Fish embryo tests were carried out using six different concentrations (0.001, 0.01, 0.1, 1, 10, and 100 μM) of each of the tested substances and controls over 96 hours at a constant temperature of 26.9°C (±1°C) under semi-static experimental set-up. The used medium was E3 according to Cold Spring Harbor Protocols (5 mM NaCl, 0.17 mM KCl, 0.33 mM CaCl2, 0.33 mM MgSO4). Each FET consists of 24 embryos per concentration, where each embryo is considered an individual replicate. Before the tests, all wells in the testing culture well plates were saturated by overnight incubation with corresponding concentrations of 5g and 4h. Before loading the embryos into the well plates, all solutions were replaced by freshly aerated ones with corresponding concentrations or controls. All solutions in the well plates were changed again after 48 hours of exposure to minimize a potential reduction in oxygen levels and compound concentration. Fish embryos were inspected and scored for mortality, morphological changes, or hatching success rates at 24-, 48-, 72-, and 96-hours post-exposure (hpe) under an inverted microscope (Olympus IX71; Olympus Czech Group, s.r.o., Czech Republic). […] In comparison, > 90% of the embryos in the positive control (3,4-dichloroaniline) were considered dead at the end of the 96-hour exposure. Morphological endpoints in our analysis were: (1) coagulation of fertilised eggs or developing embryos; (2) lack of somite formation; (3) lack of detachment of the tail bud from the yolk sac; (4) lack of heartbeat or heart defects (oedema); (5) malformations of body parts (head and tail region); (6) growth retardation. All morphological endpoints were used to determine the mortality (a positive endpoint means the embryo was considered dead).
For both compounds, the negative controls involved pure E3 medium and E3 medium containing 0.05% DMSO.

Mtb H37Rv = assay: Metabolic labeling with 14C acetate and TLC lipid analysis; details: 10× and 100× MIC, 14C acetate, 24 h
Mtb H37Ra pVV2-dprE2 = assay: microbe, parasite or virus in culture; type: cell-based; details: Mycobacterium tuberculosis, 672 h, 28 days
[2] = test system: Mycobacterium kansasii 6509/96; assay: MIC, micro method in Šula's semisynthetic medium, M. kansasii clinical isolate; type: cell-based; details: read-out: MIC M. kansasii 6509/96
[3] = test system: Mtb H37Ra pVV2-dprE1/dprE2; assay: microbe, parasite or virus in culture; type: cell-based; details: Mycobacterium tuberculosis, 672 h, 28 days
Mtb H37Ra pVV2 = assay: microbe, parasite or virus in culture; type: cell-based; details: Mycobacterium tuberculosis, 672 h, 28 days
Mtb 331/88 (i.e., H37Rv) = assay: MIC, micro method in Šula's semisynthetic medium, drug-susceptible Mtb; type: cell-based, Mycobacterium tuberculosis; details: for MIC: Mycobacterium tuberculosis, H37RV
[4] = 330/88, 336 h, read-out: MIC M. avium 330/88
[5] = 330/88, 504 h, read-out: MIC M. avium 330/88

`CCCCCCCCNC(=O)NNC(=O)c1cc([N+](=O)[O-])cc([N+](=O)[O-])c1` [Compound 4h, 2-(3,5-Dinitrobenzoyl)-N-octylhydrazine-1-carboxamide] gave an MIC [1, 4] of 125 µM (≈ 47.7 µg/mL), an MIC [1, 5] of 250 µM (≈ 95.3 µg/mL) and an MIC ([1]; 330/88, read-out: MIC M. avium) of 125 to 250 µM (≈ 47.7 to 95.3 µg/mL). For the same compound, the pIC50 (HepG2 cells) was 3.87, the “mortality at 1 µM” value (Danio rerio embryos) was “no significant mortality” and the mortality (Danio rerio embryos; 10 µM) was 100%. For the same compound, the mortality (Danio rerio embryos; 100 µM) was 100%, the lethality (Danio rerio embryos; 100 µM) was 100% and the observed lethal endpoints (Danio rerio embryos) was “embryo coagulation and growth retardation”. For the same compound, the “embryo coagulation, share of all observed endpoints” value (Danio rerio embryos) was > 35%, the “lipid profile of treated cells vs untreated cells” value (“lipid profile … vs untreated cells” below) (Mtb H37Rv) was “accumulation of TMM and TDM” and the MIC (Mtb H37Ra pVV2-dprE2) was < 0.5 µM. It also gave an MIC ([2]; 6509/96, 168 h) of 1 µM (≈ 0.381 µg/mL), an MIC ([2]; 6509/96, 336 h) of 1 µM (≈ 0.381 µg/mL) and an MIC ([2]; 6509/96, 504 h) of 1 µM (≈ 0.381 µg/mL). For the same compound, the MIC [3] was > 2.5 µM, the MIC (Mtb H37Ra pVV2) was < 0.5 µM and the MIC (Mtb 331/88 (i.e., H37Rv); 336 h, 14 days) was 0.25 µM (≈ 0.0953 µg/mL). The MIC (Mtb 331/88 (i.e., H37Rv); 504 h, 21 days) was 0.5 µM (≈ 0.191 µg/mL).
With `CCCCCCCCCCCCNC(=S)NNC(=O)c1cc([N+](=O)[O-])cc([N+](=O)[O-])c1` [Compound 4s, 2-(3,5-Dinitrobenzoyl)-N-dodecylhydrazine-1-carbothioamide] the MIC [1, 4] was 16 µM (≈ 7.26 µg/mL), the MIC [1, 5] was 16 µM (≈ 7.26 µg/mL) and the “lipid profile … vs untreated cells” value (Mtb H37Rv) was “accumulation of TMM and TDM”. For the same compound, the MIC (Mtb H37Ra pVV2-dprE2) was 2 µM (≈ 0.907 µg/mL), the MIC ([2]; 6509/96, 168 h) was 1 µM (≈ 0.454 µg/mL) and the MIC ([2]; 6509/96, 336 h) was 1 µM (≈ 0.454 µg/mL). The MIC ([2]; 6509/96, 504 h) was 2 µM (≈ 0.907 µg/mL), the MIC [3] was > 4 µM and the MIC (Mtb H37Ra pVV2) was 2 µM (≈ 0.907 µg/mL). The MIC (Mtb 331/88 (i.e., H37Rv); 336 h, 14 days) was 2 µM (≈ 0.907 µg/mL) and the MIC (Mtb 331/88 (i.e., H37Rv); 504 h, 21 days) was 2 µM (≈ 0.907 µg/mL).
With `CCCCCCNc1nnc(-c2cc([N+](=O)[O-])cc([N+](=O)[O-])c2)o1` [Compound 5f, 5-(3,5-Dinitrophenyl)-N-hexyl-1,3,4-oxadiazol-2-amine] the MIC [1, 4] was ≤ 1 µM, the MIC [1, 5] was ≤ 1 µM and the MIC ([1]; 330/88, read-out: MIC M. avium) was 1 µM (≈ 0.335 µg/mL). For the same compound, the pIC50 (HepG2 cells) was < 4.00, the “selectivity (SI) for M. avium” value (HepG2 cells; ratio of IC50 (HepG2) to MIC) was > 100 and the MIC ([2]; 6509/96, 168 h) was 0.25 µM (≈ 0.0838 µg/mL). The MIC ([2]; 6509/96, 336 h) was 0.5 µM (≈ 0.168 µg/mL), the MIC ([2]; 6509/96, 504 h) was 0.5 µM (≈ 0.168 µg/mL) and the MIC (Mtb 331/88 (i.e., H37Rv); 336 h, 14 days) was ≤ 0.03 µM. The MIC (Mtb 331/88 (i.e., H37Rv); 504 h, 21 days) was ≤ 0.03 µM and the “fold more potent than precursor 4 against Mtb” value (Mtb 331/88 (i.e., H37Rv); oxadiazole 5 vs hydrazinecarboxamide 4 counterpart) was ≥ 33.3 fold.
For `CCCCCCCNc1nnc(-c2cc([N+](=O)[O-])cc([N+](=O)[O-])c2)o1` [Compound 5g, 5-(3,5-Dinitrophenyl)-N-heptyl-1,3,4-oxadiazol-2-amine], the MIC [1, 4] was 4 µM (≈ 1.4 µg/mL), the MIC [1, 5] was 8 µM (≈ 2.79 µg/mL) and the pIC50 (HepG2 cells) was < 4.00. The “mortality at 1 µM” value (Danio rerio embryos) was “no significant mortality”, the mortality (Danio rerio embryos; 10 µM) was 100% and the mortality (Danio rerio embryos; 100 µM) was 100%. The lethality (Danio rerio embryos; 100 µM) was 100%, the observed lethal endpoints (Danio rerio embryos) was “pericardial oedema at lower concentrations and by growth retardation at higher concentrations” and the “embryo coagulation, share of all observed endpoints” value (Danio rerio embryos) was > 25%. For the same compound, the “lipid profile … vs untreated cells” value (Mtb H37Rv) was “accumulation of TMM and TDM”, the MIC (Mtb H37Ra pVV2-dprE2) was < 0.06 µM and the MIC ([2]; 6509/96, 168 h) was ≤ 0.03 µM. For the same compound, the MIC ([2]; 6509/96, 336 h) was 0.06 µM (≈ 0.021 µg/mL), the MIC ([2]; 6509/96, 504 h) was 0.125 µM (≈ 0.0437 µg/mL) and the MIC [3] was > 0.3 µM. For the same compound, the MIC (Mtb H37Ra pVV2) was < 0.06 µM, the MIC (Mtb 331/88 (i.e., H37Rv); 336 h, 14 days) was ≤ 0.03 µM and the MIC (Mtb 331/88 (i.e., H37Rv); 504 h, 21 days) was ≤ 0.03 µM.
In the case of `CCCCCCCCNc1nnc(-c2cc([N+](=O)[O-])cc([N+](=O)[O-])c2)o1` [Compound 5h, 5-(3,5-Dinitrophenyl)-N-octyl-1,3,4-oxadiazol-2-amine], the MIC [1, 4] was 8 µM (≈ 2.91 µg/mL), the MIC [1, 5] was 16 µM (≈ 5.81 µg/mL) and the pIC50 (HepG2 cells) was < 4.00. The MIC ([2]; 6509/96, 168 h) was ≤ 0.03 µM, the MIC ([2]; 6509/96, 336 h) was 0.06 µM (≈ 0.0218 µg/mL) and the MIC ([2]; 6509/96, 504 h) was 0.06 µM (≈ 0.0218 µg/mL). For the same compound, the MIC (Mtb 331/88 (i.e., H37Rv); 336 h, 14 days) was 0.06 µM (≈ 0.0218 µg/mL) and the MIC (Mtb 331/88 (i.e., H37Rv); 504 h, 21 days) was 0.06 µM (≈ 0.0218 µg/mL).
With `CCCCCCCCCNc1nnc(-c2cc([N+](=O)[O-])cc([N+](=O)[O-])c2)o1` [Compound 5i, 5-(3,5-Dinitrophenyl)-N-nonyl-1,3,4-oxadiazol-2-amine] the MIC [1, 4] was 8 µM (≈ 3.02 µg/mL), the MIC [1, 5] was 16 µM (≈ 6.04 µg/mL) and the pIC50 (HepG2 cells) was < 4.00. For the same compound, the MIC ([2]; 6509/96, 168 h) was ≤ 0.03 µM, the MIC ([2]; 6509/96, 336 h) was 0.06 µM (≈ 0.0226 µg/mL) and the MIC ([2]; 6509/96, 504 h) was 0.06 µM (≈ 0.0226 µg/mL). The MIC (Mtb 331/88 (i.e., H37Rv); 336 h, 14 days) was 0.06 µM (≈ 0.0226 µg/mL) and the MIC (Mtb 331/88 (i.e., H37Rv); 504 h, 21 days) was 0.06 µM (≈ 0.0226 µg/mL).
`CCCCCCCCCCNc1nnc(-c2cc([N+](=O)[O-])cc([N+](=O)[O-])c2)o1` [Compound 5j, N-Decyl-5-(3,5-dinitrophenyl)-1,3,4-oxadiazol-2-amine] was tested, and the MIC [1, 4] was 4 µM (≈ 1.57 µg/mL), the MIC [1, 5] was 8 µM (≈ 3.13 µg/mL) and the pIC50 (HepG2 cells) was < 4.00. The MIC ([2]; 6509/96, 168 h) was 1 µM (≈ 0.391 µg/mL), the MIC ([2]; 6509/96, 336 h) was 1 µM (≈ 0.391 µg/mL) and the MIC ([2]; 6509/96, 504 h) was 1 µM (≈ 0.391 µg/mL). The MIC (Mtb 331/88 (i.e., H37Rv); 336 h, 14 days) was 0.5 µM (≈ 0.196 µg/mL) and the MIC (Mtb 331/88 (i.e., H37Rv); 504 h, 21 days) was 1 µM (≈ 0.391 µg/mL).
`CCCCCCCCCCCNc1nnc(-c2cc([N+](=O)[O-])cc([N+](=O)[O-])c2)o1` [Compound 5k, 5-(3,5-Dinitrophenyl)-N-undecyl-1,3,4-oxadiazol-2-amine] was tested, and the MIC [1, 4] was 4 µM (≈ 1.62 µg/mL), the MIC [1, 5] was 4 µM (≈ 1.62 µg/mL) and the pIC50 (HepG2 cells) was < 4.30. The MIC ([2]; 6509/96, 168 h) was 1 µM (≈ 0.405 µg/mL), the MIC ([2]; 6509/96, 336 h) was 1 µM (≈ 0.405 µg/mL) and the MIC ([2]; 6509/96, 504 h) was 1 µM (≈ 0.405 µg/mL). The MIC (Mtb 331/88 (i.e., H37Rv); 336 h, 14 days) was 0.5 µM (≈ 0.203 µg/mL) and the MIC (Mtb 331/88 (i.e., H37Rv); 504 h, 21 days) was 1 µM (≈ 0.405 µg/mL).
